Broadly, the melting point is the temperature, or range, at which the solid turns liquid.

`O=C1c2cc(Br)ccc2COc2ccccc21` displayed a melting point of 104 to 106 °C. Molecule `OCc1cccc(-n2cccc2)c1Br` registered a melting point of 78 to 80 °C. Take `O=C1C=C2CCCCC2N1c1ccc(OCCN2CCCCC2)c(Cl)c1` (stereo unspecified): the melting point turned out to be 98 °C. Molecule `O=[N+]([O-])c1cnn2c1-c1ccccc1NC2c1ccc(Cl)cc1` (stereo unspecified) registered a melting point of 217 to 219 °C. As for `CC(=O)N[C@@H]1CCCC[C@H]1Nc1nc(Nc2ccc3c(c2)C(C)(C)CCC(=O)N3)ncc1Cl`, the melting point was determined as 227 °C. Take `Cc1sc(N)c(C(=O)c2ccccn2)c1C`: the melting point lay within 136 to 139 °C. In turn, `O=C(NC1(COc2ccc(Br)cc2)COC1)OCc1ccccc1` registered a melting point of 101 to 103 °C. With `OC(CCl)c1ccc(-c2ccc(SC(F)F)cc2)cc1` (stereo unspecified), the melting point lay within 66 to 68 °C. Molecule `CC(C)(C)OC(=O)N[C@H]1CC[C@H](CCOS(C)(=O)=O)CC1` displayed a melting point of 116 °C. `Cc1cc(C)c(C(CO)c2ccccc2)c(O)c1C` (stereo unspecified): the melting point lay within 103 to 104 °C. The molecule `CCOC(=O)C1=C(C)NC(CN(C)C)=C(C(=O)OCC)C1c1ccccc1/C=C/C(=O)OC(C)(C)C` (stereo unspecified) displayed a melting point of 146 to 148 °C. The molecule `O=[N+]([O-])c1cc(C(F)(F)F)cc2nc(N3CCN(c4ncccc4C(F)(F)F)CC3)[nH]c12` had a melting point of 192 °C. `CCc1oc2ccccc2c1C(=O)c1cc(-c2ccccc2)c(O)c(-c2ccccc2)c1` came in with a melting point of 142 to 143 °C.

In turn, `COc1cc(OC)nc(NC(=O)NS(=O)(=O)Cc2ccccc2S(C)(=O)=O)n1` gave a melting point of 180 to 182 °C. In the case of `COC(=O)NCCOC(=O)C(C)Oc1ccc(Oc2cnc3cc(Cl)ccc3n2)cc1` (stereo unspecified) it was 103 to 104 °C; in that of `CC(C)(C)c1ccc(C(O)CCCN2CCC(=C3c4ccccc4C=Cc4ccccc43)CC2)cc1` (stereo unspecified), 141 to 142 °C. Molecule `CCOC(=O)C1=C(CC)NCN(c2ccc(Cl)cc2)C1=O` gave a melting point of 118 to 120 °C. For `CCCCc1nn(-c2cc(NC(=O)CC)ccc2Cl)c(=O)n1Cc1ccc(-c2ccccc2S(=O)(=O)NC(=O)c2ccccc2Cl)cc1F`, the melting point is > 152 °C. In the case of `COCCN(C(=O)c1cnc(N2CC(C)(C)NC2=O)nc1N)c1cccc(C(F)(F)F)c1` it was 192 to 193 °C. Molecule `CN1CCN(c2ccccc2C=C2C(=O)N(Cc3ccc(Cl)c(Cl)c3)c3ccccc32)CC1` gave a melting point of 120 to 124 °C. In turn, `CC(C)=NOCCCCn1cnc2c(N)nc3c(c21)CCCC3` displayed a melting point of 151 to 153 °C. Next, `O=C1C(c2c[nH]c3ccccc23)=C(c2c[nH]c3ccccc23)C(=O)N1Cc1ccccc1`: > 290 °C. Molecule `CCOc1ccc(C(=O)C=Cc2ccc(SC)cc2)cc1` yielded a melting point of 108 °C. In turn, `CCC1(c2cccc(OC)c2)CCCC(=O)N(C)C1` (stereo unspecified) displayed a melting point of 69 to 71 °C.

Regarding `O=C1NC(=O)c2cc(Nc3ccc(F)cc3)c(Nc3ccc(F)cc3)cc21`, the melting point is > 220 °C. In the case of `CC(=O)NCC1Cc2cccc3cccc1c23` (stereo unspecified), the melting point was determined as 145 °C. As for `NCCCc1c[nH]c2ccc3c(=O)[nH]ccc3c12`, the melting point fell in the range of 225 to 230 °C. Molecule `C=C(C)c1ccc(CNC(=O)N2CCN(c3ncnc4cc(OC)c(OC)cc34)CC2)cc1` gave a melting point of 123 to 124 °C. `Cc1nc(N2CCN(Cc3ccccn3)C2=O)sc1C(=O)NCc1cccnc1` registered a melting point of 58 to 61 °C. Turning to `OC1(c2ccc(Cl)cc2)CCN(CCNC(c2ccccc2)c2ccccc2)CC1`, the melting point was 114 °C. On to `Cc1nnc(-c2cc3c(OCCCN4CCC(c5ccc6c(c5)OCO6)CC4)cccc3o2)o1`, for which the melting point lay in the range of 125 to 127 °C. For the molecule `COCCOc1c(S(C)(=O)=O)ccc(C(=O)c2cnn(C)c2O)c1C`, the melting point lay in the range of 112 to 114 °C.

The molecule `CCCCCc1noc(-c2ccc(N3CCN(C(=O)c4ccccc4C(F)(F)F)CC3)nn2)n1` showed a melting point of 164 °C. `CNC(=O)N(Cc1ccc(C(C)(C)C)cc1)NC(=O)OC(C)(C)C` gave a melting point of 124 to 129 °C. On to `COCCOc1ccc2c(c1)C1(CO2)C(=O)N(Cc2ccccn2)c2ccccc21` (stereo unspecified), for which the melting point was 140 to 142 °C. Turning to `O=C(NCc1ccc(Cl)cc1)c1ccc2cccnc2c1O`, the melting point was 162 to 165 °C. As for `CCOC(=O)c1cc(C(C)=O)on1`, the melting point is 67 to 68 °C. `CCc1nc(-c2ccccc2)[nH]c(=O)c1C` had a melting point of 195 to 199 °C.

With `CCCCCCC(C(=O)O)n1cnc2c(NC(=O)c3ccccc3-c3nn[nH]n3)cccc21` (stereo unspecified), the melting point fell in the range of 130 to 134 °C.

`COC(=O)c1cc(Oc2ccc(F)cc2F)ncc1[N+](=O)[O-]` yielded a melting point of 90.2 to 91.4 °C. Next, `NC(=O)NCc1cccc2c1C(=O)N(C1CCC(=O)NC1=O)C2=O` (stereo unspecified): 292 to 294 °C. Take `O=C1NC(c2ccccc2)Oc2ccccc21` (stereo unspecified): the melting point was 157 to 160 °C.

In turn, `CC(C)c1cccc(C(C)C)c1NC(=O)NCC1(c2ccccc2)CCCCC1` gave a melting point of 168 to 169 °C. `CCOC(=O)Cn1nnnc1C(=O)c1ccccc1`: the melting point is 63 to 67 °C.

The molecule `O=C(O)C1CCc2c(c3ccccc3n2C(=O)c2ccc3c(c2)OCO3)C1` (stereo unspecified) registered a melting point of 198 to 200 °C. The molecule `CCOC(=O)C(CCC#N)(C(=O)OCC)c1ccc([N+](=O)[O-])cn1` returned a melting point of 59.5 to 61 °C. In the case of `CCSc1ccc2c3c([nH]c2c1)CCCCC3C` (stereo unspecified) it was 44 °C; in that of `COc1ccc(C=O)cc1OC1CC=CC1`, 60 to 62 °C. Next, `O=C(CNc1ccc(Cl)cc1)NCCc1ccc(OCc2ccccc2)c(OCc2ccccc2)c1`: 121 °C; `O=C1c2ccccc2C=C(Cl)Cc2ccccc21`: 109 to 110 °C; `O=C(O)c1ccc(C(c2cc(F)ccc2F)S(=O)(=O)c2ccc(Cl)cc2)nc1` (stereo unspecified): > 230 °C.

Turning to `N#Cc1ccc(Cn2c(=O)sc3c(=O)[nH]c(N)nc32)cc1`, the melting point is > 320 °C. For the molecule `CCCCCCC1C(=O)NC2(C(O)C3CCCCC3)C(=O)OC12C` (stereo unspecified), the melting point is 167 °C. In the case of `O=C(Nc1ccc(-c2ccnc3c(C(=O)c4cccs4)cnn23)s1)c1ccccc1` it was 162 to 165 °C; in that of `COc1cc2c(cc1OC)CN(CCCCNC(=O)c1cc(C)ccc1OCCF)CC2`, 131 to 133 °C. As for `CC(OC(=O)Nc1ccc(-c2ncn(-c3ccc(OC(F)(F)F)cc3)n2)cc1)C(F)(F)C(F)(F)F` (stereo unspecified), the melting point fell in the range of 171 to 173 °C.

In the case of `Nc1ccc(CO)c(Nc2nccc(-c3cccnc3)n2)c1`, the melting point fell in the range of 213 to 215 °C.

Regarding `CC(=O)C1CCC2=C(C1)C1OC2c2cc3ccccc3cc21` (stereo unspecified), the melting point is 158 to 160 °C. `CN1C(=O)CCC2(C)c3ccc(-c4cccc(F)c4)cc3CCC12` (single isomer, unassigned; (+)) returned a melting point of 116 to 120 °C. Next, `O=C(Cl)c1cnc2cc(OCc3ccccc3)c(OCc3ccccc3)cn2c1=O`: 152 °C; `Cc1ccc(C)c(N2C(=O)CON(C)C2=S)c1`: 104 to 106 °C; `N#Cc1cccc(C(CC(=O)c2ccc(F)cc2)CC(=O)c2ccc(F)cc2)c1`: 120 to 123 °C.

On to `CC(=O)OCC(=O)C1(OC(C)=O)CCC2C3C=C(C)C4=CC(=O)CCC4(C)C3CCC21C` (stereo unspecified), for which the melting point lay within 213 to 215 °C. In the case of `O=C(Nc1ccccc1)N(Cc1ccc(Cl)cc1)C1CC2CCC1C2` (stereo unspecified) it was 111 to 113 °C. For `CC(C)c1ccc(C(=O)NC(C)c2cccs2)cc1` (stereo unspecified), the melting point was determined as 100 °C. Next, `O=C(c1ccccc1)c1cccc(OCCn2ccnc(N3CCNCC3)c2=O)c1`: 69 to 70 °C. `COCCC(=O)c1cc(C(=O)OC)c(N)cc1C(F)(F)F` had a melting point of 89 to 91 °C. As for `CCOC(C)=CC(=O)Nc1ccc(Cl)c(Cl)c1`, the melting point was determined as 126 °C. In turn, `Cc1ccc2[nH]ncc2c1OCc1ccccc1` showed a melting point of 94 to 95 °C. As to `Cn1nc(Sc2cc(C(F)(F)F)ccc2C#N)n(C)c1=O`, the melting point was found to be 113 °C. `O=C1c2ccccc2-c2ccc(-c3nc(COc4ccc(CCCn5ccnc5)cc4)co3)cc21` registered a melting point of 153 to 154 °C. In the case of `CCCCCCc1nc2cnc3ccccc3c2n1CCCCNS(=O)(=O)c1ccccc1` it was 137 to 138 °C; in that of `Cc1cc2cc(CN3CCC(C(=O)N(C)C)CC3)cnc2cc1NC(=O)c1ccc(-c2ccc(F)cc2)cc1`, 229 °C.

For the molecule `CCOC(=O)Nc1cc(N[C@H](C)C(=O)c2ccccc2)c([N+](=O)[O-])c(N)n1`, the melting point lay within 150 to 155 °C. Take `Cn1cc2c(ncn3nc(-c4ccco4)nc23)n1`: the melting point was 155 to 156 °C. In turn, `CCCCOCCOc1ccc(-c2ccc3c(c2)C=C(C(=O)O)CCN3C(=O)CNC(C)=O)cc1` registered a melting point of 196 to 201 °C. `O=c1[nH]c2ccccc2n1Cc1ccc(OC(F)(F)F)cc1` gave a melting point of 145 to 148 °C. On to `OCC1CNc2ncccc2O1` (stereo unspecified), for which the melting point was in the range of 123 to 124 °C. Consider `Cc1cc(C#CC2(O)CN3CCC2CC3)cc(C)c1OCCOc1ccccc1` (stereo unspecified), for which the melting point was 141 to 142 °C. Take `COc1ccc(NC(=O)N[C@H]2C[C@@](N)(C(=O)O)[C@@H]3[C@@H](C(=O)O)[C@@H]32)cc1` (relative stereo): the melting point was > 250 °C. Regarding `O=C(c1cc2cc(OCc3ccccc3)ccc2[nH]1)C12CC3CC(CC(C3)C1)C2`, the melting point fell in the range of 189 to 191 °C.

`CCCCC1=NC2(CCCC2)C(=O)N1Cc1ccc(-c2ccccc2S(=O)(=O)NC(=O)c2onc(C)c2C)c(CN2CCC(C)(C)C2=O)c1`: the melting point is 104 to 110 °C. In turn, `O=C1OC(=O)c2nc3ccc(OC(F)F)cc3cc21` came in with a melting point of 158 °C.

`C=CC(C)(C)CC(NC(=O)c1ccc(Cl)cc1)NC(=N[N+](=O)[O-])Nc1cccnc1` (stereo unspecified) displayed a melting point of 186 °C. With `CC1(C)CC(=O)N(CC(CS(=O)(=O)c2ccc(-c3ccc(F)cc3)cc2)N(O)C=O)C(=O)C1` (stereo unspecified), the melting point fell in the range of 105 to 109 °C. `CCCOc1cccc(CCCOc2ccc3c(c2)C=C(C(=O)O)CCS3(=O)=O)c1` registered a melting point of 128 to 131 °C.

The values above are taken from a melting point compilation (Tetko et al.; mined from patent text by program, amines drawn as free bases though some values may be those of a salt).
